Data on two molecules can be found in US12577231B2, “Androgen receptor PROTACS” (GlaxoSmithKline Intellectual Property Development Limited, priority 2023, dated 2026).

Numbering of substitutions follows the chain as printed.

The nature of data set [1]: Systemic exposure following oral administration in the rat. The settings on record: for AUC0-t: 72 hours sampling; for AUC0-t / Cmax / Dose Normalised AUC0-t / Tmax: mean±SD (n=3); for *Estimated Bioavailability: dose normalised AUC0-t against an IV dose of 0.5 mg/kg.
Method: Systemic exposure of various forms of N-((1r,3r)-3-(4-cyano-3-methoxyphenoxy)-2,2,4,4-tetramethylcyclobutyl)-4-(4-((4-(4-(2,4-dioxotetrahydropyrimidin-1(2H)-yl)-1H-pyrazolo[4,3-c]pyridin-1-yl)piperidin-1-yl)methyl)piperidin-1-yl)-3-fluorobenzamide were assessed following oral administration of 30 mg/kg of a suspension formulation (1% methylcellulose (aq)) or following oral administration of 35 mg/kg of a suspension formulation (100% PEG400) in the male Wistar Han rat. […] The sampling period was 72 hours, and the data is reported in the attached table as mean±SD (n=3).
In data set [2] the target is T1, Androgen Receptor, VCaP (AR wild type and amplified) (Homo sapiens, UniProt P10275).
T1 construct: endogenous in cells; host or cells: VCaP
T1 sequence (P10275 1-920): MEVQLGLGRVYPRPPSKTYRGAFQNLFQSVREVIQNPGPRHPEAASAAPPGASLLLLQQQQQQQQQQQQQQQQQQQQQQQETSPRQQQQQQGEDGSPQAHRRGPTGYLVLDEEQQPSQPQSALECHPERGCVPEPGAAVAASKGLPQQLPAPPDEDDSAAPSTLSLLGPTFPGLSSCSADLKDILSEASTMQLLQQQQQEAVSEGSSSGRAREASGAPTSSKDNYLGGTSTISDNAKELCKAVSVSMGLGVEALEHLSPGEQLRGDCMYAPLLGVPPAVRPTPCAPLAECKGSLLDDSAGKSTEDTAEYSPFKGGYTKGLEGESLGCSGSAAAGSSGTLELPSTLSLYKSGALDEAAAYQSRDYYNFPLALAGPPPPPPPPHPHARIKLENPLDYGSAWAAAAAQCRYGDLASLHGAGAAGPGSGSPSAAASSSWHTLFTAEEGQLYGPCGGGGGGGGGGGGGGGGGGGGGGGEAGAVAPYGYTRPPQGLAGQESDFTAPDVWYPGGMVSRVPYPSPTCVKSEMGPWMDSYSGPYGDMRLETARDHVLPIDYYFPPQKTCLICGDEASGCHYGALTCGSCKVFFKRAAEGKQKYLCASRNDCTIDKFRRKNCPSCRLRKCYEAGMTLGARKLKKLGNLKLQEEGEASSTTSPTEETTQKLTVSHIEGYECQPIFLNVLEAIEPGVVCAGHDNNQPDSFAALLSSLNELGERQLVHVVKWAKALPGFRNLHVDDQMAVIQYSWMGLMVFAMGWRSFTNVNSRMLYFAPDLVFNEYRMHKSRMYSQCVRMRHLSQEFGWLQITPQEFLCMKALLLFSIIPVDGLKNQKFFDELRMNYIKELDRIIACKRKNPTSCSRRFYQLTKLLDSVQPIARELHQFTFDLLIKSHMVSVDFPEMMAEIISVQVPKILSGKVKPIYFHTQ
Put plainly: Androgen Receptor Degradation-Imaging Assay, VCaP cell line. It counts as cell-based. The settings on record: 16 hours treatment, maximum observed degradation. The protocol:
(§1) Degradation of Androgen Receptor (AR) protein in human prostate cancer cell lines (MDA-PCa-2b (AR T878A/L702H), LNCaP (AR T878A), VCaP (AR wild type and amplified) 22RV1 (AR H875Y) and PC3 (AR negative control)) treated with AR PROTACs was quantified using immunofluorescence. Prostate cancer cells were plated (MDA-PCa-2b, and VCaP 16,000 cells/well; LNCaP and 22RV1 32,000 cells/well, and PC3 8,000 cells/well) in an optical bottom 96-well cell culture plate and allowed to attach overnight. The prostate cancer cell lines were treated for 16 hours with a 10-point 3-fold dilution series (dose range=0.02 nM to 333 nM). PC3 is included as an AR negative control and not treated with compound. Cells are fixed and permeabilized with 4% formaldehyde, blocked with 10% goat serum in immunofluorescence (IF) buffer (130 mM NaCl, 7 mM Na2HPO4, 3.5 mM NaH2PO4, 7.7 mM NaN3, 0.1% BSA, 0.2% Triton X, 0.05% Tween 20) prior to overnight incubation with rabbit antibody specific for C terminus of AR (commercially available from RevMaB Biosciences). Following washes with IF buffer, cells were incubated with fluorescent secondary antibody (Goat anti-rabbit Alexa 647; commercially available from Invitrogen) and Hoechst nuclear stain (commercially available from Themo Scientific) prior to quantification of nuclear AR levels via Opera Phenix high-content fluorescent imager using a 40× water objective. Image analysis was performed with Harmony software.
(§2) The averaged nuclear Alexa 647 median fluorescence intensity (MFI) of PC3 cells is subtracted from the nuclear Alexa 647 MFI of PROTAC treated and DMSO control treated cells. % AR remaining is calculated for PROTAC treatments as a percent of the DMSO control (MFI PROTAC treated/MFI DMSO control treated)*100). DC50 and the Dmax values, were obtained from these normalised values fitted with a 4-parameter sigmoidal response curve (Xlfit software). The DC50 is the interpolated concentration of PROTAC corresponding to 50% of the protein being degraded, and the Dmax parameter is the maximum experimentally observed degradation.

The target of data set [3] is T2, Androgen Receptor, LNCaP (AR T878A) (Homo sapiens, UniProt P10275, T878A).
T2 construct: endogenous in cells; host or cells: LNCaP
T2 sequence (P10275 1-920 T878A): T1 sequence (P10275 1-920) with T878A
Put plainly: Androgen Receptor Degradation-Imaging Assay, LNCaP cell line. It counts as cell-based. The settings on record: 16 hours treatment, maximum observed degradation. The protocol:
as §1, §2

Data set [4] concerns the target T3, Androgen Receptor, MDA-PCa-2b (AR T878A/L702H) (Homo sapiens, UniProt P10275, L702H/T878A).
T3 construct: host or cells: MDA-PCa-2b
T3 sequence (P10275 1-920 L702H/T878A): T1 sequence (P10275 1-920) with L702H, T878A
Put plainly: Androgen Receptor Degradation-Imaging Assay, MDA-PCa-2b cell line. It counts as cell-based. The settings on record: 16 hours treatment, maximum observed degradation. The protocol:
as §1, §2

Where [5] appears, read: 30 mg/kg in 1% methylcellulose (aq.), male Wistar Han rat, 30 mg/kg.
[6] abbreviates: 35 mg/kg in 100% PEG400, male Wistar Han rat, 35 mg/kg.

The Cmax is the highest concentration seen after dosing. For orientation: Tmax means the time at which the peak concentration occurs. As to `COc1cc(O[C@H]2C(C)(C)[C@H](NC(=O)c3ccc(N4CCC(CN5CCC(n6ncc7c(N8CCC(=O)NC8=O)nccc76)CC5)CC4)c(F)c3)C2(C)C)ccc1C#N` [Crystalline API, N-((1r,3r)-3-(4-cyano-3-methoxyphenoxy)-2,2,4,4-tetramethylcyclobutyl)-4-(4-((4-(4-(2,4-dioxotetrahydropyrimidin-1(2H)-yl)-1H-pyrazolo[4,3-c]pyridin-1-yl)piperidin-1-yl)methyl)piperidin-1-yl)-3-fluorobenzamide], in data set [1] (setting [5]), the AUC0-t came out at 4380 ± 1450 ng·h/mL, the Cmax was 185 ± 76 ng/mL, the “Dose Normalised AUC0-t” value is recorded as 148 ± 49 (ng · h/mL)/(mg/kg and the Tmax is 7.3 ± 1.2 h. Further, the “*Estimated Bioavailability” value in data set [1] (30 mg/kg in 1% methylcellulose (aq.), rat) is listed as 16%. Moreover, in data set [1] (setting [6]), the AUC0-t was 10700 ± 3370 ng·h/mL, the Cmax is recorded as 420 ± 123 ng/mL, the “Dose Normalised AUC0-t” value is given as 309 ± 98 (ng · h/mL)/(mg/kg and the Tmax worked out at 9.3 ± 2.3 h. In addition, the “*Estimated Bioavailability” value in data set [1] (35 mg/kg in 100% PEG400, rat) is 33%.
In general, Dmax refers to the largest share of the target that was removed. Higher therefore signals a fuller loss of target. Take `COc1cc(O[C@H]2C(C)(C)[C@H](NC(=O)c3ccc(N4CCC(CN5CCC(n6ccc7c(N8CCC(=O)NC8=O)nccc76)CC5)CC4)c(F)c3)C2(C)C)ccc1C#N` [Example 17, N-((1r,3r)-3-(4-Cyano-3-methoxyphenoxy)-2,2,4,4-tetramethylcyclobutyl)-4-(4-((4-(4-(2,4-dioxotetrahydropyrimidin-1(2H)-yl)-1H-pyrrolo[3,2-c]pyridin-1-yl)piperidin-1-yl)methyl)piperidin-1-yl)-3-fluorobenzamide]: the Dmax in data set [2], in data set [3] and in data set [4] was at least 80% throughout.
